Structures can show the parent of a compound that is named as a salt.
SMILES	melting point
Cc1ccc(-c2ccc3c(c2)C=C(C(=O)Nc2ccc(CNc4ccccc4)cc2)CCO3)cc1 [Compound 115, N-(4—((phenylamino)methyl)phenyl)-7—(4-methylphenyl)-2,3-dihydro-1-benzoxepine-4-carboxamide]	157 to 158 °C
Cc1ccc(-c2ccc3c(c2)C=C(C(=O)Nc2ccc(CN4CCCCC4)cc2)C3)cc1 [Compound 60, N-[4—(piperidinomethyl)phenyl]-5—(4-methylphenyl)indene-2-carboxamide]	219 to 220 °C
CN1CCN(c2ccc(-c3ccc4c(c3)C=C(C(=O)Nc3ccc(CN(C)C5CCOCC5)cc3)CCO4)cc2)CC1 [Compound 124, 7—(4—(4-methylpiperazin-1-yl)phenyl)-N-(4—((N-tetrahydropyran-4-yl-N-methylamino)methyl)phenyl)-2,3-dihydro-1-benzoxepine-4-carboxamide]	220 to 221 °C
COCCN(CCOC)Cc1ccc(NC(=O)C2=Cc3cc(-c4ccc(C)cc4)ccc3OCC2)cc1 [Compound 311, N-(4-((N,N-bis(2-methoxyethyl)amino)methyl)phenyl)-7-(4-methylphenyl)-2,3-dihydro-1-benzoxepine-4-carboxamide]	110 to 112 °C
COc1ccc(-c2ccc3c(c2)C=C(C(=O)Nc2ccc(CN(C)C4CCC5(CC4)OCCO5)cc2)CCS3)cc1 [Compound 283, N-[4-[N-(4,4-ethylenedioxy-cyclohexyl)-N-methylaminomethyl]phenyl]-7-(4-methoxy-phenyl)-2,3-dihydro-1-benzothiepine-4-carboxamide]	198 to 201 °C
Cc1ccc(-c2ccc3c(c2)C=C(C(=O)Nc2ccc(C[N+](C)(C)C4CCOCC4)cc2)CCO3)cc1.[Cl-]	232 to 237 °C (dec.)
CCP(=O)(CC)Cc1ccc(NC(=O)/C=C/c2cccc(-c3ccc(C)cc3)c2)cc1 [Compound 187, (E)-N-(4-diethylphosphorylmethylphenyl)-3—(4-methylphenyl)cinnamamide]	197 to 198 °C
Cc1ccc(-c2ccc3c(c2)C=C(C(=O)Nc2ccc(C[N+]4(C)CCCCC4)cc2)CCO3)cc1 (as salt: iodide) [Compound 96, 1—(N-(7—(4-methylphenyl)-2,3-dihydro-1-benzoxepin-4-carbonyl)-4-aminobenzyl)-1-methylpiperidinium iodide]	227 to 228 °C (dec.)
COc1ccc(CCN(C)Cc2ccc(NC(=O)/C=C/c3cccc(-c4ccc(C)cc4)c3)cc2)cc1OC.Cl	214 to 217 °C
Cc1ccc(-c2cccc(/C=C/C(=O)Nc3ccc(-c4cccnc4)cc3)c2)cc1 [Compound 192, (E)-N-[4—(3-pyridyl)phenyl]-3—(4-methylphenyl)cinnamamide]	213 to 214 °C
COc1cc(CN2CCN(Cc3ccc(NC(=O)C4=Cc5cc(-c6ccc(C)cc6)ccc5CC4)cc3)CC2)cc(OC)c1OC [Compound 45, N-[4-[1—(3,4,5-trimethoxybenzyl)-4-piperazinylmethyl]-phenyl]-7—(4-methylphenyl)-3,4-dihydronaphthalene-2-carboxamide]	143 to 144 °C
Cc1ccc(-c2ccc3c(c2)C=C(C(=O)Nc2ccc(CSc4ccccc4)cc2)CCO3)cc1 [Compound 82, 7—(4-methylphenyl)-N-(4—(phenyl-thiomethyl)phenyl)-2,3-dihydro-1-benzoxepine-4-carboxamide]	176 to 177 °C
CN(Cc1ccc(NC(=O)C2=Cc3cc(-c4ccc(-n5ccnc5)cc4)ccc3OCC2)cc1)C1CCOCC1 [Compound 153, 7—(4—(1-imidazolyl)phenyl)-N-(4—((N-tetra-hydropyran-4-yl-N-methylamino)methyl)phenyl)-2,3-dihydro-1-benzoxepine-4-carboxamide]	194 to 195 °C
Cc1ccc(-c2ccc3c(c2)C=C(C(=O)Nc2ccc(C[S+]([O-])c4ccccc4)cc2)CCO3)cc1 (stereo not shown) [Compound 108, 7—(4-methylphenyl)-N-(4—(phenylsulfinylmethyl)phenyl)-2,3-dihydro-1-benzoxepine-4-carboxamide]	127 to 128 °C

More lines, now with the values ahead:

melting point	SMILES
215 to 217 °C	Cc1ccc(-c2ccc3c(c2)C=C(C(=O)Nc2ccc(C(O)c4ccccn4)cc2)CCO3)cc1 (stereo not shown) [Compound 166, N-[4-[hydroxy(2-pyridyl)-methyl]phenyl]-7—(4-methylphenyl)-2,3-dihydro-1-benzoxepine-4-carboxamide]
187 to 189 °C	CC(C)c1ccc(-c2ccc(/C=C/C(=O)Nc3ccc(CN(C)C4CCOCC4)cc3)s2)cc1 [Compound 274, (E)-3-[5-(4-isopropylphenyl)thiophen-2-yl]-N-[4-[N-methyl-N-(tetrahydropyran-4-yl)aminomethyl]-phenyl]acrylamide]
128 to 132 °C	COCC(COC)N(C)Cc1ccc(NC(=O)C2=Cc3cc(-c4ccc(C)cc4)ccc3OCC2)cc1 [Compound 313, N-(4-((N-(1,3-dimethoxypropan-2-yl)-N-methylamino)methyl)phenyl)-7-(4-methylphenyl)-2,3-dihydro-1-benzoxepine-4-carboxamide]
175 to 176 °C	Cc1ccc(-c2ccc3c(c2)C=C(C(=O)Nc2ccc(CN4CCCCC4)cc2)CC(C)O3)cc1 (stereo not shown) [Compound 105, 7—(4-methylphenyl)-2-methyl-N-(4—(piperidinomethyl)phenyl)-2,3-dihydro-1-benzoxepine-4-carboxamide]
162 to 163 °C	CN(C)c1ccc(-c2ccc3c(c2)C=C(C(=O)Nc2ccc(CP4(=O)CCCCC4)cc2)CCO3)cc1.Cl
182 to 184 °C	CN(C)Cc1ccc(NC(=O)C2=Cc3cc(-c4ccccc4)ccc3CC2)cc1 [Compound 6, N-[4—(dimethylaminomethyl)-phenyl]-7-phenyl-3,4-dihydro-naphthalene-2-carboxamide]
161 to 162 °C	Cc1ccc(-c2ccc3c(c2)C=C(C(=O)Nc2ccc(CSC4CCCCC4)cc2)CCO3)cc1 [Compound 53, N-(4—(cyclohexylthiomethyl)-phenyl)-7—(4-methylphenyl)-2,3-dihydro-1-benzoxepine-4-carboxamide]
268 to 269 °C	Cc1ccc(-c2ccc3c(c2)C=C(C(=O)Nc2ccc(CP4(=O)OCCCO4)cc2)CCO3)cc1 [Ref Ex 51, 2—(4—(7—(4-methylphenyl)-2,3-dihydro-1-benzoxepin-4-carbonylamino)benzyl)-1,3,2-dioxaphosphorinane-2-oxide]
185 to 187 °C	Cc1ccc(-c2ccc3c(c2)C=C(C(=O)Nc2ccc(CN4CCN(CCO)CC4)cc2)CC3)cc1 [Compound 46, N-[4-[1—(2-hydroxyethyl)-4-piperazinylmethyl]phenyl]-7—(4-methylphenyl)-3,4-dihydronaphthalene-2-carboxamide]
261 to 263 °C	Cc1ccc(-c2ccc3c(c2)C=C(C(=O)Nc2ccc(Cc4cccc[n+]4[O-])cc2)CO3)cc1 [Compound 200, N-[4—(1-oxidopyridin-2-ylmethyl)phenyl]-6—(4-methylphenyl)-2H-1-benzopyran-3-carboxamide]
224 to 227 °C	Cc1ccc(-c2cc3ccc(C(=O)Nc4ccc(CN(C)C5CCOCC5)cc4)cc3o2)cc1 [Compound 278, 2-(4-methylphenyl)-N-[4-[N-methyl-N-(tetrahydropyran-4-yl)aminomethyl]phenyl]benzofuran-6-carboxamide]

— patent US6413947B1, “Anilide derivative, production and use thereof” (Takeda Chemical Industries, Ltd., priority 1997, dated 2002)
